Legend:
[1] = Aerobic stability of inoculated high moisture corn silage (1999 HMC field trials, PVC silos)
Procedure: High moisture corn was harvested by combine at 22 to 28% moisture. Harvested grain was processed with a roller mill with rollers set at a gap width of approximately 3 mm.
Inoculants were formulated to deliver the appropriate rate as give in Table 2. A 30 cc syringe fitted with a 16-gauge needle was used to apply the inoculants to the forage at a rate of 1 ml/lb. The inoculants were mixed with the forage by rolling on clean plastic.
(§1) For each treatment two 4″×14″ PVC silos with air infusion holes near the top and bottom of the silo were filled with 2.5 kg of forage. Experimental silos were fitted with rubber quick caps at each end, the top having a bunsen valve to allow gas to escape. The silos were then kept in an environmentally controlled room until opening.
(§2) Two pre-ensiled forage samples were taken while filling during each trial for pH and microbial analysis. Lactic acid bacteria (LAB) were enumerated on modified DeMann-Rogosa-Sharpe (MRS) agar and yeasts and molds on Sabouraud Dextrose agar. Dry matter (DM) was determined by drying to a constant weight for 72 hours at 55° C. in a forced air oven. Inoculum was plated on modified MRS agar. Silos were opened after approximately 60 days, emptied and mixed. Samples were taken for pH, DM, digestibility, and aerobic stability analyses.
Aerobic stabilty was determined by placing 500 g of silage into a plastic tub with holes in the lid and bottom, placing a temperature probe in the center of the silage mass and placing the tub into a styrofoam cooler (Honig, Das Wirtschaftseigene Futter (1975) 21:25-32). The coolers were then kept in a temperature-controlled room where the ambient temperature and silage temperature were recorded by a datalogger every three hours for one week. DM was determined as per the pre-ensiled samples. Dried samples from the DM determination were ground through a 4 mm Wiley Mill screen and scanned by near infrared spectroscopy (NIRS).

[2] = Aerobic stability of inoculated whole plant corn silage (WPCS fall field trials, PVC silos)
Procedure: Whole plant corn forage was harvested at approximately 2/3 milk line with a 2-row pull type forage chopper. Theoretical chop length was […].
A 30 cc syringe fitted with a 16-gauge needle was used to apply the inoculants to the forage at a rate of 1 ml/lb. The inoculants were mixed with the forage by rolling on clean plastic.
as §1, with “filed” for “filled”, “1123 g, 1173 g, 1271 g, 1144 g, 1459 g, 1278 g, 1207 g and 1097 g” for “2.5 kg”, “then weighed for dry matter recovery. After filing, the silos were” for “then”, “opening and air infused for 24 hours on day 28.” for “opening.”
as §2, with “Three” for “Two”, “MRS” for “DeMann-Rogosa-Sharpe (MRS)”, “matter” for “matter (DM)”, “50 days” for “approximately 60 days,”, “DM” for “DM, digestibility,”
Aerobic stability was determined by placing 100 g of dry matter of silage into a plastic tub with holes in the lid and bottom, placing a temperature probe in the center of the silage mass and placing the tub into a styrofoam cooler (Honig, Das Wirtschaftseigene Futter (1975) 21:25-32). The coolers were then kept in a temperature-controlled room where the ambient temperature and silage temperature were recorded by a datalogger every three hours for one week. DM was determined as per the pre-ensiled samples. Frozen samples of selected samples were submitted for VFA analysis according to standard protocols.

SMILES: CCC(=O)O [PROP, Propionic acid]
- improvement of aerobic stability [1]: 94 h
- improvement of aerobic stability (in words) [1]: effective in all trials
- Loss ([1]; number of HMC field trials with 24 hour decrease in stability compared to control): 0
- Win ([1]; number of HMC field trials with 24 hour increase in stability compared to control): 8
- No Difference ([1]; number of HMC field trials with no difference from control): 0
- Loss ([2]; number of WPCS trials (of 8) with 24 hour decrease in stability compared to control): 2
- Win ([2]; number of WPCS trials (of 8) with 24 hour increase in stability compared to control): 3
- No Effect ([2]; number of WPCS trials (of 8) with no effect): 3
